Reference: article PMC13538172, “Zonisamide nanodiamonds for brain targeting: A comprehensive study utilising in silico, in vitro, in vivo, and molecular investigation for successful nose-to-brain delivery for epilepsy management” (Drug Delivery and Translational Research, 2025)
Values joined by “and” are separate entries in the source; they are usually repeats but may differ in a detail not shown here. Equal entries are not always repeated.

Key:
[1] = Brain uptake, biodistribution and pharmacokinetics of 99mTc-radiolabelled ZNS in mice; format: in vivo, male Swiss albino mice; conditions: for Cmax (%ID/g), blood / Cmax (%ID/g), brain: n = 6
Method: Then, 100 μL of freshly eluted ^99mTc-pertechnetate; 99mTcO4- (200 MBq) was added to the above mixture, and the reaction mixture was vigorously shaken for 15 minutes. Radiochromatographic analysis was developed using the ascending paper chromatography (PC) technique to monitor the radiochemical purity of the ^99mTc-labelled compound using two distinct mobile phases; acetone was used to detect free pertechnetate, which migrated to Rf = 1, while the other component remained at Rf = 0 and a second mobile phase, comprising NH4OH, C2H5OH, and H2O (1:2:5), was used to determine the reduced hydrolyzed (R-H) 99mTc-colloid, which remained at Rf = 0, whereas ^99mTc-labelled compound and free pertechnetate migrated to Rf = 1 [7, 47]. Two drops of the reaction product and free 99mTcO4 were placed on two strips of Whatman PC on the origin line, 2 cm far from the base, to be developed by developing solvents. The experiments were conducted in triplicate to ensure the reproducibility and reliability of the results. As the developing process was terminated, the strip was dried, trimmed into 1 cm size pieces, and counted using the sodium iodide (NaI) γ-ray scintillation counter (A good-type NaI scintillation γ-Counter model scalar rate meter SR7 (Nuclear Enterprises Ltd., USA). The radiochemical yield percent of ^99mTc–ZNS was calculated using Eq. (3)3 %Radiochemicalyield=100-%Free99mTc-%colloid99mTc
The experiment protocol was approved by the University of October for Modern Sciences and Arts (MSA) ethical committee (Pt2/Ec2/2022PD), where the principles of the Declaration of Helsinki were followed. The mice were maintained in cabins of a size that suits groups of five at room temperature with a 12 h light/dark cycle and accessibility to food and water ad libitum. The mice were divided into four groups. Mice in group 1 served as a control and received no treatments. Mice in group 2 were given ZNS orally using an oral gavage (100 μL). Mice in group 3 were injected intranasally with ^99mTc–ND-ZNS complex in each nostril (100 μL) with the help of a micropipette attached with a low-density polyethene tube having 0.1 mm internal diameter at the delivery site. Mice in group 4 were injected intranasally free ^99mTc–-ZNS similarly. The mice were held from the back in a slanted position during nasal administration of the formulations. Next, mice were anesthetized by chloroform at 5, 15, 30, 60, 120 min post-injection (n=6 mice/time point). Samples of fresh blood and different organs were collected, washed twice using saline solution, made free from adhering tissue/fluid, and weighed. The radioactivity in each tissue/organ was measured using a shielded well-type gamma scintillation counter. The radiopharmaceutical uptake per gram in each tissue/organ was calculated as a fraction of the administered dose. Percent injected dose per gram organ and body fluid (mean %ID per gram organ and body fluid ± SD) in a population of six mice were calculated, and the significance level was set at […].
Drug concentrations in plasma and brain were investigated based on the measured radioactivity as previously discussed. Blood samples were collected at 5, 15, 30, 60, and 120 min post-injection (n=6 mice/time interval). Plasma and brain pharmacokinetic parameters were calculated by non-compartmental analysis using the Microsoft Excel Pharmacokinetics add-on. The rate of drug absorption was estimated through maximum plasma/brain concentration (Cmax), time for maximum plasma/brain concentration (Tmax), the extent of drug absorption via the area under the curve from zero to time (AUC0-t), and the area under the curve from zero to infinity (AUC 0-∞). The data in the form of mean values (± SD) of three determinations were statistically analyzed by applying one-way ANOVA using Minitab 17 software. Data was expressed as mean±S.D and analyzed by ANOVA followed by Tukey's test for multiple comparisons. Differences were considered significant when p was less than 0.05. […]

[2] = system: neurofilament light polypeptide (NEFL); test: Serum NEFL by ELISA in TLE rats; format: in vivo; conditions: compared to the TLE control rats; intranasal, 7 days
Method: Temporal lobe epilepsy (TLE) was induced in rats using the pilocarpine model according to the method of Arshad et al.. Prior to the experiment, rats were housed in plastic cages at October University for Modern Science and Arts under controlled environmental conditions (temperatures of 25°±3°C and 50% humidity) with free access to water and softened standard pellet chow. The rats were injected with pilocarpine (300 mg/kg; i.p.) to induce status epilepticus (SE). Atropine (1 mg/kg; i.p.) was injected 30 minutes before pilocarpine injection to antagonize the peripheral muscarinic activity. SE was defined using the modified Racine scale by observing seizure severity categorized as stages 4 and 5. […] The SE seizures were left to last for 3 hours to induce hippocampus damage, after which diazepam (10 mg/kg; i.p.) was injected to attenuate the seizures. Lubricant ophthalmic gel was applied with a cotton swab to each eye to prevent the corneas from drying out during the seizures. The rats were hydrated with sterile Ringer's lactate injections (1 mL, i.p.) for 3 days post-SE induction. […]
The serum levels of neuron-specific enolase (NSE), matrix metallopeptidase-9 (MMP-9), neurofilament light polypeptide (NEFL), and brain-derived neurotrophic factor (BDNF) were measured by ELISA technique using the following standard kits CAT no. […]

NS(=O)(=O)Cc1noc2ccccc12 [ZNS, Zonisamide]
tissue distribution of ZNS (brain, liver, kidney, stomach, lungs) ([1]; 5-120 min, Fig. 6, result in words): minimal distribution in the brain
Brain/Blood Ratio (AUC Brain/AUC Blood) ([1]; intranasal): 0.24
LogBB at 15 min ([1]; intranasal): −0.55±0.06
LogBB at 15 min ([1]; intranasal, listed as free ZNS): −0.556
LogBB at 120 min ([1]; intranasal): −0.477
AUC(0-120min), blood ([1]; intranasal): 125.25 ± 21.3 %ID/g.min
Tmax (min), blood ([1]; intranasal): 15 min
Cmax (%ID/g), blood ([1]; intranasal): 1.8 ± 0.7 %ID/g
AUC(0-120min), brain ([1]; intranasal): 31 ± 9.6 %ID/g.min
Tmax (min), brain ([1]; intranasal): 15 min
Cmax (%ID/g), brain ([1]; intranasal): 0.5 ± 0.2 %ID/g
LogBB at 15 min ([1]; oral): −0.865
LogBB at 120 min ([1]; oral): −1.301
AUC(0-120min), blood ([1]; oral): 77.6 ± 15.3 %ID/g.min
Tmax (min), blood ([1]; oral): 30 min
Cmax (%ID/g), blood ([1]; oral): 1.4 ± 0.07 %ID/g
AUC(0-120min), brain ([1]; oral): 7.1 ± 3.1 %ID/g.min
Tmax (min), brain ([1]; oral): 15 min
Cmax (%ID/g), brain ([1]; oral): 0.2 ± 0.02 %ID/g
Brain/Blood Ratio (AUC Brain/AUC Blood) ([1]; oral, listed as free ZNS): 0.09 and 0.091
decrease in serum level of NEFL [2]: 44.6%
